Experimental data reported in patent publication EP4186918A1 (Université de Rennes, priority 2021, dated 2023).
“Also recorded” adds a separate entry of the source.

What was measured:
[1] = Critical Assembly Concentration (CCa) by sedimentation; format: physicochemical; details: batch of VQIVYK used in the study; fibrillation buffer 1X
Procedure: The polymerization of VQIVYK was initiated by mixing the VQIVYK peptide (at various concentrations, 52 µM to 344 µM) with 1/4 of its volume in fibrillation buffer 5X. Once polymerized, the samples were sedimented at 16,900 g for 15 minutes. The concentration of free peptide was measured by assay nanodrop 800. The concentration of polymerized peptide was thus determined using the following the relation: [1p]pellet = [1p]initial −[1p]supernatant [formula]

[2] = Sedimentation after polymerization (aggregative character); format: physicochemical; details: 800 µM peptide; sedimentable peptide after polymerization as % of total concentration
Procedure: (§1) After thawing, a pre-dilution in milli Q H2O filtered through 0.2 µm was carried out in order to obtain a solution at a concentration close to the working concentration, greater than 1.25 times. This stock solution was left to incubate for 1 hour in a water bath at 25°C, and was then assayed spectrophotometrically and adjusted to the final working concentration of 1.25 times. The polymerization was initiated by adding 1/4 of the volume of 5X fibrillation buffer (50 mM MOPS, 750 mM NaCl, pH = 7.2) for a final concentration of 1X fibrillation buffer (10 mM MOPS, 150 mM NaCl, PH = 7.2). The samples were left to incubate for 1.5-2 hours at 25°C in a water bath. The study of the polymerization by fluorimetry was carried out under the same conditions, except that the 5X polymerization buffer was supplemented with Thioflavin T (ThT) at 100 µM in order to be able to observe the fluorescence. • (a) Determination of the Aggregative Character of the Peptides. […] The concentration of the supernatant was determined using the Beer-Lambert law A = ε x 1 x C; ε (peptides) = 1450 M^-1cm^-1. […] The fluorescence of the sample was then measured immediately after dilution by recording a fluorescence spectrum (470 nm to 600 nm) at an excitation wavelength of 450 nm (Perkin Elmer LS 55, PM 750, slit10).

[3] = Garnier-Delamarche representation combining sedimentation and ThT fluorescence; format: physicochemical; details: from sedimentation and ThT fluorescence
Procedure: as §1, with “slit10). […]” for “slit10).”

[4] = Thioflavin T fluorescence after polymerization (amyloidogenic character); format: physicochemical; details: 800 µM peptide; ThT fluorescence normalized to 1p = 100%
Procedure: as §1

[5] = test system: VQIVYK (PHF6); experiment: Polymerization kinetics of 1p with selected peptides, ThT spectrofluorimetry; format: biochemical, human
Procedure: (§2) After thawing, a pre-dilution of the peptides of interest in sterile water was carried out in order to obtain, for each peptide, a solution at a concentration close to the working concentration. The peptides were then left to incubate at 4°C overnight. On the day of the experiment, the peptide solutions were sonicated for 10 minutes, left to stand for one hour at room temperature, sonicated again for 10 minutes and assayed spectrophotometrically at 280 nm (ε = 1450 M^-1cm^-1). The UV spectra were previously normalized to 0 at 300 nm. The solutions were prepared at concentrations of peptides 1/4 above that desired in the end. The polymerization of VQIVYK was initiated by adding 1/4 of the volume of fibrillation buffer 5X for a final concentration of fibrillation buffer 1X (10 mM MOPS, 150 mM NaCl, pH = 7.2).
The analyses were carried out on a spectrofluorometer (LS 55 from Perkin Elmer) fitted with a 4-cell rack. Black quartz cells (0.2x1.0 cm) were used. Excitation and emission wavelengths were 450 nm and 480 nm, respectively, and the sensitivity (Photomultiplier "PM") was set at 800 V. The size of the slits was varied from 3 nm to 6 nm. Normalization of each kinetics was performed with respect to the position of the cell on the rack.
The results were first smoothed over 10 points with the "smooth" option of the KaleidaGraph software. After normalization with respect to the position of the cells in the rack, each start of kinetics was adjusted to 0 before the addition of the fibrillation buffer. Finally, the results of each kinetics were normalized relative to the fluorescence intensity of the 1p control after 100 minutes of polymerization considered to be 100%.

[6] = Polymerization kinetics of selected peptide alone, ThT spectrofluorimetry; format: physicochemical; details: 310 µM, ThT fluorescence
Procedure: as §2
The analyses were carried out on a spectrofluorometer (LS 55 from Perkin Elmer) fitted with a 4-cell rack. Black quartz cells (0.2x1.0 cm) were used. […]
The results were first smoothed over 10 points with the "smooth" option of the KaleidaGraph software. […] Finally, the results of each kinetics were normalized relative to the fluorescence intensity of the 1p control after 100 minutes of polymerization considered to be 100%.

Substance | Critical Assembly Concentration (CCa) [1] | % sedimentation [2] | amyloidogenic and aggregative character [3] | % fluorescence [4] | category of polymerization kinetics of 1p in presence of peptide ([5]; [1p] = 155 µM, [selected peptide] = 310 µM) | effect on polymerization of 1p ([5]; [1p] = 155 µM, [selected peptide] = 310 µM, thresholds 50% rate, 100% fluorescence intensity) | classification of inhibitory effect (3 categories) ([5]; inhibition of PHF6 aggregation) | persistence of inhibitory effect ([5]; polymerization followed for 15 hours) | polymerization of peptide alone [6]
Ac-VQIVYK-NH2 [1p, VQIVYK] | 32 µM | 94% | strong amyloidogenic and self-aggregative potential | 100% |  |  |  |  | 
Ac-YQIVVK-NH2 [6tp, YQIVVK] |  | 0% | weakly amyloidogenic and weakly aggregative | 1.3% | slow compared to 1p alone and which have a lower fluorescence intensity | clearly inhibited; also recorded: marked inhibitory effect | with a strong inhibitory effect | the inhibitory effect persisted | do not polymerize on their own
